Results published in patent publication US5852017A, “2,3(1H,4H)-quinoxalinediones” (BASF Aktiengesellschaft, priority 1992, dated 1998).

Experiments:
[1] = target: AMPA receptors; experiment: Binding of 3H-AMPA to rat cerebra membrane material; conditions: displacement of 3H-AMPA, membrane material from rat cerebra, incubated on ice for 60 minutes
Method: (§1) The pharmacological activity of the compounds I and I' according to the invention was investigated on membrane material isolated from rat cerebra. To do this, the membrane material was treated in the presence of the compounds according to the invention with the radio-labeled substances ^3 H-2-amino-3-hydroxy-5-methyl-4-isoxazolepropionic acid (^3 H-AMPA) and ^3 H-5,7-dichlorokynurenic acid, which bind to specific receptors (AMPA and NMDA (N-methyl-D-aspartate) receptors respectively). The radioactivity of the treated membranes was then measured by scintillation counting. The amounts of bound ^3 H-AMPA and ^3 H-5,7-dichlorokynurenic acid, or the amounts of these radiolabeled substances displaced in each case, can be determined from the bound radioactivity. The resulting dissociation constant KI (I=inhibitor), which is a measure of the displacement by the active substance according to the invention, was calculated by iterative non-linear regression analysis with the statistical analysis system (SAS) on an IBM computer, similar to the "Ligand" program of P. J. Munson and D. Rodbard (Analytical Biochem. 107, (1980) 220, Ligand: Versatile Computerized Approach for Characterization of Ligand Binding Systems).
1. Binding of ^3 H-2-amino-3-hydroxy-5-methyl-4-isoxazolepropionic acid (^3 H-AMPA) […]

[2] = target: NMDA (N-methyl-D-aspartate) receptors; experiment: Binding of 3H-5,7-dichlorokynurenic acid to rat cerebra membrane material; conditions: displacement of 3H-5,7-dichlorokynurenic acid, membrane material from rat cerebra, incubated on ice for 30 minutes
Method: as §1
2. Binding of ^3 H-5,7-dichlorokynurenic acid […]

Row | SMILES | Ki [1] | Ki [2]
1 | O=c1[nH]c2cc(Cl)c(-n3cccc3)cc2[nH]c1=O [Example 1, 7-Chloro-6-(1-pyrrolyl)-2,3(1H,4H)-quinoxalinedione] | < 10 µM | 
2 | O=c1[nH]c2cc(-n3cccc3)c(C(F)(F)F)cc2[nH]c1=O [Example 2, 6-(1-Pyrrolyl)-7-trifluoromethyl-2,3(1H,4H)-quinoxalinedione] |  | < 10 µM
